The subject of assay [1] is human lung cancer cell line NCI-H23. Put plainly: Soft agar colony formation assay, NCI-H23. It is filed as cell-based. To be noted: NCI-H23, 3D culture, FIG. 2. The procedure:
(§1) Six lung cancer cell lines (NCI-H23, NCI-H460, NCI-H596, NCI-H2170, Calu-6 and A549), two colon cancer cell lines (HCT116 and SW460), one breast cancer cell line MDA-MB-231, one gastric cancer cell line NCI-N87, one prostate cancer cell line DU145, one cervical cancer cell line Hela, and one glioblastoma cell line T98G were obtained from ATCC. The T2 HCC cell line was derived from a mouse liver cancer model initiated by a transgene of MYC (Reference). All cell lines were cultured in DMEM (Gibco, Cleveland, TN, USA) supplemented with 5% fetal bovine serum (Gibco), penicillin (100 U/mL)-streptomycin (100 μg/mL) (Gibco, Cat. No. 15140-122), 2 mM L-glutamine (Gibco, 200 mM solution, Cat. No. 25030081), and 1 mM sodium pyruvate (Gibco, 100 mM solution, Cat. No. 11360070) at 37° C. in a humidified incubator that was maintained at 5% CO2.
Measuring the ability of cells to grow in soft agar has been popularly believed as the gold standard assay for cellular transformation in vitro. In the Soft Agar Assay, cells grow from single cells to cell colonies in a semi-solid agar solution that keeps them away from the solid surface and allows growth in an anchorage-independent way.
The anchorage-independent growth of cells is one of the hallmarks of cancer cells. Normal epithelial cells are supported by basement membranes that provide survival and proliferative signals while undergo a type of apoptosis called anoikis when lose their attachment to the extracellular matrix. Cancer cells, in contrast, evade attachment-induced apoptosis, leading to uncontrolled proliferation and metastasis. The Soft Agar Colony Formation Assay allows testing of the therapeutic efficacy of compounds against anchorage-independent 3D growth of cancer cells in vitro. The assay was performed in 6-well plates with two layers of agar. For the first, 0.75% agar in DMEM medium was melted in a microwave oven and poured to form a bottom layer. […] Cell culture medium was changed once every two days until colonies were ready to photograph. […]

Assay [2] concerns lung cancer cell line NCI-H460. Put plainly: MTT assay of cellular proliferation, NCI-H460. It is filed as cell-based. To be noted: Homo sapiens, read-out: EC50: Concentration that inhibits 50% of proliferation. How it is done: as §1
(§2) The MTT assay measures cellular metabolic activity as a proxy for cell viability and involves the conversion of the water-soluble yellow dye MTT [3-(4,5-dimethylthiazol-2-yl)-2,5-diphenyltetrazolium bromide] into an insoluble purple formazan by the action of mitochondrial reductase. Formazan is then solubilized and its concentration is determined by measuring the optical density (OD) value at a wavelength of 570 nm. The value is in proportional to the number of live cells with excellent linearity up to ˜10^6 cells per well. The MTT assay was used to determine the EC50 value, the concentration of a compound that leads to 50% inhibition of cellular proliferation. Briefly, cells were split when growing to the mid-Log phase. Cells in 100 μL of culture medium were seeded into each well of 96-well microplates and cultivated for 15˜24 hours to reach a confluence of 20˜30% and were then exposed to drugs at concentrations ranging from 1 nM to 10 μM. At the endpoint, 20 μL of a MTT stock solution in DMSO (5 mg/mL) was added to each well that contains […] of DMEM. The microplates were left in the cell culture incubator for 3˜4 h before subjected to solubilization and determination of formazan at A570 in a microplate reader (BioTek ELX808iu). […] Therefore, these compounds might hold a broad utility in the treatment of a large variety of human malignancies.

Assay [3] deals with lung cancer cell line NCI-H596. Put plainly: MTT assay of cellular proliferation, NCI-H596. It is filed as cell-based. To be noted: Homo sapiens, read-out: EC50: Concentration that inhibits 50% of proliferation. How it is done:
as §1, §2
Background: Tetrazolium dyes change colour on reduction, which living cells bring about.

Assay [4] concerns lung cancer cell line NCI-H2170. Kind of assay: MTT assay of cellular proliferation, NCI-H2170. To be noted: Homo sapiens, read-out: EC50: Concentration that inhibits 50% of proliferation. Format: cell-based. How it is done:
as §1, §2

Assay [5] deals with lung cancer cell line A549. Put plainly: MTT assay of cellular proliferation, A549. Format: cell-based. To be noted: Homo sapiens, read-out: EC50: Concentration that inhibits 50% of proliferation. The method in brief: (§3)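 MTT viability assay in DMEM with 5% FBS. Cells seeded to 20–30% confluence were exposed to compound from 1 nM to 10 μM, then MTT was added for 3–4 h and formazan was read at 570 nm. EC50 is the concentration giving 50% inhibition of proliferation.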

For assay [6], the system named is breast cancer cell line MDA-MB-231. Kind of assay: MTT assay of cellular proliferation, MDA-MB-231. Format: cell-based. To be noted: Homo sapiens, read-out: EC50: Concentration that inhibits 50% of proliferation. The method in brief:
as §3

Assay [7] concerns gastric cancer cell line NCI-N87. Kind of assay: MTT assay of cellular proliferation, NCI-N87. It is filed as cell-based. To be noted: Homo sapiens, read-out: EC50: Concentration that inhibits 50% of proliferation. In short, it runs like this:
as §3

In assay [8] the test system is prostate cancer cell line DU145. Kind of assay: MTT assay of cellular proliferation, DU145. Format: cell-based. To be noted: Homo sapiens, DU-145, read-out: EC50: Concentration that inhibits 50% of proliferation. How it is done: as §1, §2
The test system of assay [9] is cervical cancer cell line Hela. Put plainly: MTT assay of cellular proliferation, Hela. It is filed as cell-based. To be noted: Homo sapiens, read-out: EC50: Concentration that inhibits 50% of proliferation. In short, it runs like this:
as §3

The test system of assay [10] is glioblastoma cell line T98G. Put plainly: MTT assay of cellular proliferation, T98G. It is filed as cell-based. To be noted: Homo sapiens, read-out: EC50: Concentration that inhibits 50% of proliferation. The procedure: as §1, §2
The test system of assay [11] is lung cancer cell line NCI-H23. Kind of assay: Minimal effective concentration that elicits polyploidy, NCI-H23. It is filed as cell-based. To be noted: Homo sapiens, read-out: MECP: Minimal effective concentration that elicits polyploidy.
The subject of assay [12] is lung cancer cell line NCI-H596. Kind of assay: Minimal effective concentration that elicits polyploidy, NCI-H596. It is filed as cell-based, human.
For assay [13], the system named is lung cancer cell line NCI-H2170. Put plainly: Minimal effective concentration that elicits polyploidy, NCI-H2170. It is filed as cell-based, human.
Assay [14] concerns lung cancer cell line A549. Kind of assay: Minimal effective concentration that elicits polyploidy, A549. To be noted: Homo sapiens, read-out: MECP: Minimal effective concentration that elicits polyploidy. It is filed as cell-based.
The test system of assay [15] is glioblastoma cell line T98G. Kind of assay: Minimal effective concentration that elicits polyploidy, T98G. Format: cell-based, human.
For assay [16], the system named is breast cancer cell line MDA-MB-231. Put plainly: Minimal effective concentration that elicits polyploidy, MDA-MB-231. It is filed as cell-based. To be noted: Homo sapiens, read-out: MECP: Minimal effective concentration that elicits polyploidy.
Assay [17] concerns cervical cancer cell line Hela. Kind of assay: Minimal effective concentration that elicits polyploidy, Hela. Format: cell-based. To be noted: Homo sapiens, read-out: MECP: Minimal effective concentration that elicits polyploidy.
Assay [18] concerns gastric cancer cell line NCI-N87. Kind of assay: Minimal effective concentration that elicits polyploidy, NCI-N87. To be noted: Homo sapiens, read-out: MECP: Minimal effective concentration that elicits polyploidy. It is filed as cell-based.
Another assay relates to RPEMYC^H2B-GFP cells. Put plainly: Mechanism-informed phenotypic screening assay (mitotic arrest, polyploidy; GE IN-Cell Analyzer 2000). It is filed as cell-based. To be noted: 20 nM to 20 μM, 24, 48 or 72 hours, read-out: Mitotic Arrest (≥5%).

The text below walks through data of patent US20240262803A1, “COMPOUNDS, COMPOSITIONS AND METHODS OF TREATING DISORDERS” (Chungdu Anticancer Bioscience Ltd, priority 2021, published 2024).

Each structure is given as a SMILES string. Entries after “also recorded” stand apart in the source; their conditions may differ.

Regarding `COC(=O)c1cc(OC)cc(Oc2ncccc2-c2ccnc(N)n2)c1` [Compound 23, Methyl 3-((3-(2-aminopyrimidin-4-yl)pyridin-2-yl)oxy)-5-methoxybenzoate], the “anchorage-independent growth in soft agar” value (from here on “anchorage-independent growth”) in [1] is recorded as “Suppress the Anchorage-independent Growth; also recorded: completely blocked the growth”. Moreover, the EC50 in [2] is 10 to 30 µM; in assay [3] it was 0.001 to 1 µM; in assay [4], 0.001 to 1 µM; in assay [5] it was 10 to 30 µM; in assay [6], 0.001 to 1 µM; in assay [7], 0.001 to 1 µM. Also, the EC50 lay within 0.001 to 1 µM in [8], 0.001 to 1 µM in assay [9] and 10 to 30 µM in assay [10]. In addition, the minimal effective concentration is 0.001 to 1 µM in assay [11]; 1 to 10 µM in assay [14]; 0.001 to 1 µM in assay [16]; 0.001 to 1 µM in [17]; 0.001 to 1 µM in assay [18]; 1 µM in the assay with RPEMYC^H2B-GFP cells. For the same molecule, the “MECP: Minimal effective concentration that elicits polyploidy” value in assay [12], in [13] and in assay [15] was “A (A: 1 nM < conc. ≤ 1 μM)” throughout.
Turning to `COC(=O)c1cc(Oc2ncccc2-c2ccncc2)cc(C(=O)OC)c1` [Compound 1, Dimethyl 5-([3,4′-bipyridin]-2-yloxy)isophthalate], the “anchorage-independent growth” value in assay [1] was “completely blocked the growth”. Besides, the EC50 is 10 to 30 µM in assay [2]; 10 to 30 µM in assay [3]; 0.001 to 1 µM in assay [4]; 10 to 30 µM in assay [5]; 0.001 to 1 µM in [6]; 0.001 to 1 µM in assay [7]. Moreover, the EC50 in assay [8], in assay [9] and in assay [10] was 0.001 to 1 µM in each case. Also, the minimal effective concentration was 0.001 to 1 µM in [11]; 1 to 10 µM in [14]; 0.001 to 1 µM in [16]; 0.001 to 1 µM in assay [17]; 0.001 to 1 µM in assay [18]; 1 µM with RPEMYC^H2B-GFP cells. Also, the “MECP: Minimal effective concentration that elicits polyploidy” value in assay [12], in assay [13] and in assay [15] was “A (A: 1 nM < conc. ≤ 1 μM)” in each case.
Take `COC(=O)c1cc(Oc2ncccc2-c2ccnc(N)n2)cc(C(=O)OC)c1` [Compound 21, dimethyl 5-((3-(2-aminopyrimidin-4-yl)pyridin-2-yl)oxy)isophthalate]: the EC50 in [2] lay in the range of 10 to 30 µM; in [3] it was 1 to 10 µM; in assay [4] it was 0.001 to 1 µM; in assay [6], 0.001 to 1 µM; in assay [7], 0.001 to 1 µM; in assay [8], 0.001 to 1 µM. Moreover, the EC50 was 0.001 to 1 µM in assay [9] and 1 to 10 µM in assay [10]. Moreover, the minimal effective concentration was 0.001 to 1 µM in assay [11]; 0.001 to 1 µM in [16]; 0.001 to 1 µM in assay [17]; 0.001 to 1 µM in assay [18]; 1 µM with RPEMYC^H2B-GFP cells. Also, the “MECP: Minimal effective concentration that elicits polyploidy” value in assay [12] was “A (A: 1 nM < conc. ≤ 1 μM)”; in [13] it was “A (A: 1 nM < conc. ≤ 1 μM)”; in assay [15], “B (B: 1 μM < conc. ≤ 10 μM)”.
`COC(=O)c1cc(OC)cc(Oc2ncccc2-c2ccncc2)c1` [Compound 2, Methyl 3-([3,4′-bipyridin]-2-yloxy)-5-methoxybenzoate]: the “anchorage-independent growth” value in assay [1] is given as “Suppresses the Anchorage-independent Growth; also recorded: completely blocked the growth”. In addition, the EC50 in assay [2] was 10 to 30 µM; in assay [3], 0.001 to 1 µM; in assay [4] it was 0.001 to 1 µM; in assay [5], 10 to 30 µM; in assay [6], 0.001 to 1 µM; in assay [7], 0.001 to 1 µM. Further, the EC50 in assay [8], in assay [9] and in assay [10] was 0.001 to 1 µM throughout. The minimal effective concentration was 0.001 to 1 µM in assay [11]; 1 to 10 µM in assay [14]; 0.001 to 1 µM in [16]; 0.001 to 1 µM in assay [17]; 0.001 to 1 µM in assay [18]; 1 µM with RPEMYC^H2B-GFP cells. Besides, the “MECP: Minimal effective concentration that elicits polyploidy” value in assay [12], in [13] and in assay [15] was “A (A: 1 nM < conc. ≤ 1 μM)” throughout.
